In test [1] the test system is ZW658 strain. As to the kind of experiment: 1-liter fermentor, ZW658 on high concentration glucose and xylose with sorbitol or glutamate. Type of test: cell-based, Zymomonas mobilis. The protocol: (§1) Approximately 1 ml of well mixed sample was obtained from flask or fermentor. First the sample absorbance was measured directly with a spectrophotometer (Amersham Biosciences Ultrospec 3300pro, GE Healthcare, Piscataway, N.J., USA). If the reading was lower than 0.6 unit, no dilution was needed. If the reading was higher than 0.6 unit, the sample was diluted with culture medium until the actual reading was in the range of 0.1 to 0.6 unit. The original OD was calculated from the dilution ratio and the actual reading.
(§2) The analysis of sugars, acetate, ethanol, and other by-products was done with an Agilent 1100 series HPLC and Agilent ChemStation software for LC 3D. The column was BioRad Aminex HPX-87H(HPLC Organic Analysis Column 125-0140) with BioRad Micro-Guard Cartridge Cation-H (125-0129). The operating conditions were:
(§3) Glycerol stock of seed frozen at −80° C. was thawed, then inoculated into sterile culture tubes with mixture of 60 g/L glucose, 20 g/L xylose, 10 g/L yeast extract (YE), 10 g/L KH2PO4, 2 g/L (NH4)2SO4, and 1 g/L MgSO4. Initial pH was adjusted to 5.5 with 4 N KOH. This revival culture was grown statically overnight at 37° C. It was transferred into shake flasks with 75 g/L glucose, 25 g/L xylose, 10 g/L yeast extract (YE), 10 g/L KH2PO4, 2 g/L (NH4)2SO4, and 1 g/L MgSO4. Initial pH was adjusted to 5.5 with 4 N KOH. Growth was monitored by measuring OD600. When the OD reached approximately 5, a certain volume of the seed was withdrawn into a sterile syringe for inoculation.
In a sterilized 1-liter fermentor (BIOSTAT® B-DCU system, Sartorius BBI System Inc., Bethlehem, Pa., USA), 50 ml of ZW658 strain seed culture at Optical Density of approximately 5 (measured at 600 nm) was inoculated into 450 ml of aqueous solution containing sugars and medium. The final mixed broth contained 100 g/L glucose, 85.1 g/L xylose, 10 g/L yeast extract (YE), 2 g/L KH2PO4, and 10 mM sorbitol. pH was adjusted to 5.5 with 4 N KOH solution. Mixing speed was set at 150 rpm. Fermentation was conducted at 33° C. and pH 5.5. Samples were taken periodically. Samples were filtered through 0.22 micron filters, and the filtrates were analyzed by HPLC as described in General Methods for compounds including glucose, xylose, ethanol, and acetate. Samples were also diluted with medium (as described in General Methods) and the OD600 was measured to monitor cell growth. […] The by-product xylitol concentration was 0.67 g/L at 29 hr, and increased to 0.95 g/L at 64 hr.
In a sterilized 1-liter fermentor (BIOSTAT® B-DCU system, Sartorius BBI System Inc., Bethlehem, Pa., USA), 50 ml of ZW658 strain seed culture at OD600 of approximately 5 was inoculated into 450 ml of aqueous solution containing sugars and medium. The final mixed broth contained 98.0 g/L glucose, 81.2 g/L xylose, 10 g/L yeast extract (YE), 2 g/L KH2PO4, and 10 mM potassium glutamate. pH was adjusted to 5.5 with 4 N KOH solution. Mixing speed was set at 150 rpm. Fermentation was conducted at 33° C. and pH 5.5. Samples were taken periodically. Samples were filtered through 0.22 micron filters, and the filtrates were analyzed by HPLC as described in General Methods for compounds including glucose, xylose, xylitol, ethanol, and acetic acid. Samples were also diluted with medium (as described in General Methods) and the OD600 was measured to monitor cell growth. […] However, xylose was not well-utilized, cell growth and ethanol production were reduced as compared to that in the presence of sorbitol (Example 4), and xylitol production increased.

For test [2], the system named is ZW658 strain. As to the kind of experiment: Flask fermentation of ZW658 on glucose and xylose with sorbitol 10-200 mM. Type of test: cell-based, Zymomonas mobilis. The protocol: as §1, §2, §3
In five sterilized 125 ml Erlenmeyer culture flasks (Cat. No. 30180-036, VWR International, USA), 10 ml of ZW658 strain seed culture at Optical Density of approximately 5 (measured at 600 nm; OD600) was inoculated into each flask with 100 ml of aqueous solution containing 110 g/L glucose, 90 g/L xylose, 10 g/L yeast extract (YE), 2 g/L KH2PO4, 4 g/L KHCO3, and various concentrations of sorbitol (10, 20, 50, 100, and 200 mM). Initial pH was adjusted to 5.5 with 4 NH3PO4 solution. Mixing speed was set at 150 rpm. Fermentation was conducted at 33° C. and pH was not controlled. Samples were taken periodically. Samples were filtered through 0.22 micron filters, and the filtrates were analyzed by HPLC as described in General Methods for ethanol. Samples were diluted with medium (as described in General Methods) and the OD600 was measured to monitor cell growth. […] After 24 hours, the OD600 were 7.74, 7.86, 8.04, 7.82, and 7.12, respectively, for sorbitol concentrations of 10, 20, 50, 100, and 200 mM. After 48 hours, the OD600 were 8.30, 8.26, 8.84, 8.12, and 7.72, respectively, for sorbitol concentrations of 10, 20, 50, 100, and 200 mM. […] Ethanol production was slightly slower with 100 or 200 mM sorbitol than with 10, 20, or 50 mM sorbitol, although all cultures reached about the same final amount of ethanol produced. […] Thus 10 mM sorbitol is adequate to provide maximal ethanol production under these conditions.

Setting [3] is: after 29 hours, 100 g/L glucose, 85.1 g/L xylose, 10 mM sorbitol, 33° C., pH 5.5.

As to `OC[C@@H](O)[C@@H](O)[C@H](O)[C@@H](O)CO` [sorbitol], in the test with ZW658 strain [1] (100 g/L glucose, 85.1 g/L xylose, 10 mM sorbitol, 33° C., pH 5.5), the “OD600 cells grew to” value is recorded as 13. The “reduction of xylitol with addition of sorbitol” value in the test on ZW658 strain [1] (Examples 4 and 5, with vs without sorbitol) is listed as “about 3 fold”. The compound further returned an ethanol concentration in the test on ZW658 strain [1] (setting [3]) of 83.9 g/L. The compound further had a glucose concentration in the test on ZW658 strain [1] (setting [3]) of 0 g/L. In the test on ZW658 strain [1] (setting [3]), this compound gave a xylose concentration of 2.08 g/L. For the same compound, the by-product xylitol concentration in the test with ZW658 strain [1] (at 29 hr, 10 mM sorbitol) stood at 0.67 g/L; with ZW658 strain [1] (at 64 hr, 10 mM sorbitol), 0.95 g/L. Also, the “time to complete utilization of 85 g/L xylose” value with ZW658 strain [1] (sugars mixture with 100 g/L glucose, no acetate, in the presence of sorbitol) is not above 30 h. Further, the effect on growth result with ZW658 strain [1] (with vs without 10 mM sorbitol) was “doubled the growth”. The “effect on lag time” value in the test on ZW658 strain [1] (with vs without 10 mM sorbitol) is on record as “significantly reduced the lag time”. Moreover, in the test with ZW658 strain [2] (10-200 mM sorbitol, any of the samples), the xylitol entry was “No xylitol was detected”. The OD600 came out at 7.74 in the test on ZW658 strain [2] (after 24 hours, 10 mM sorbitol, 110 g/L glucose, 90 g/L xylose); 7.86 with ZW658 strain [2] (after 24 hours, 20 mM sorbitol); 8.04 in the test on ZW658 strain [2] (after 24 hours, 50 mM sorbitol); 7.82 with ZW658 strain [2] (after 24 hours, 100 mM sorbitol); 7.12 in the test on ZW658 strain [2] (after 24 hours, 200 mM sorbitol); 8.30 with ZW658 strain [2] (after 48 hours, 10 mM sorbitol). The OD600 in the test on ZW658 strain [2] (after 48 hours, 20 mM sorbitol) is listed as 8.26; in the test on ZW658 strain [2] (after 48 hours, 50 mM sorbitol), 8.84; in the test with ZW658 strain [2] (after 48 hours, 100 mM sorbitol), 8.12; with ZW658 strain [2] (after 48 hours, 200 mM sorbitol) it was 7.72.

Source of the values: patent US7629156B2, “Ethanol production in fermentation of mixed sugars containing xylose” (E.I. du Pont de Nemours and Company, priority 2006, dated 2009).
